Laboratory results published in PubChem BioAssay AID1963985 (Molecular Pharmacology Branch, DTP, NCI, 2024).
“And” between values parts separate entries of the source, which are not always exact repeats. Equal entries are not always repeated.

System: 252836-082-R-J2-PDC tumor spheroids, viability
Test: Anticancer human tumor 252836-082-R-J2-PDC patient-derived head and neck squamous cell carcinoma cell line growth inhibition [PI3K]
Settings: spheroids with HUVEC and MSC; for viability, T/C: stronger effect = lower value
How it was run: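 Three cell types, namely tumor cells, endothelial cells and mesenchymal stem cells, formed each spheroid. Combinations with four PI3K inhibitors were screened at clinically achievable concentrations decreasing by half-log, and spheroid viability was recorded.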
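Further: spheroids exposed to agents for seven days before readout.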
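Wherever viability, T/C is given: percent of vehicle DMSO control viability so 100% = untreated growth.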

**Q.** For `Cn1ncnc1[C@H]1c2n[nH]c(=O)c3cc(F)cc(c23)N[C@@H]1c1ccc(F)cc1` + CC(Nc1ccc2c(c1)OCCn1cc(N3C(=O)OCC3C(F)F)nc1-2)C(N)=O, which IC50 (curve of first compound, second compound 0.00316 µM) is on record?
**A.** The IC50 was > 100 nM.

**Q.** And the IC50 (curve of first compound, second compound 0.01 µM)?
**A.** The IC50 was > 100 nM.

**Q.** What about the IC50 (curve of first compound, second compound 0.0316 µM) of the same compound?
**A.** The IC50 was > 100 nM.

**Q.** And the IC50 (curve of first compound, second compound 0.1 µM)?
**A.** Its IC50 is 46.7 nM.

**Q.** What about the IC50 (curve of first compound, second compound 0.316 µM) of the same compound?
**A.** Its IC50 is 6.75 nM.

**Q.** What about the IC50 (curve of first compound, second compound 1 µM) of the same compound?
**A.** Its IC50 is < 0.316 nM.

**Q.** And the viability, T/C (second compound 0.00316 µM, first compound 0.000316 µM)?
**A.** The viability, T/C was 97.7%.

**Q.** And the viability, T/C (second compound 0.00316 µM, first compound 0.001 µM)?
**A.** Its viability, T/C is 86.2%.

**Q.** And the viability, T/C (second compound 0.00316 µM, first compound 0.00316 µM)?
**A.** Its viability, T/C is 78.7%.

**Q.** And the viability, T/C (second compound 0.00316 µM, first compound 0.01 µM)?
**A.** The viability, T/C was 86.3%.

**Q.** And the viability, T/C (second compound 0.00316 µM, first compound 0.0316 µM)?
**A.** The viability, T/C was 79.2%.

**Q.** What about the viability, T/C (second compound 0.00316 µM, first compound 0.1 µM) of the same compound?
**A.** Its viability, T/C is 57.5%.

**Q.** What about the viability, T/C (second compound 0.01 µM, first compound 0.000316 µM) of the same compound?
**A.** Its viability, T/C is 85.6%.

**Q.** What about the viability, T/C (second compound 0.01 µM, first compound 0.001 µM) of the same compound?
**A.** The viability, T/C was 89.5%.

**Q.** What about the viability, T/C (second compound 0.01 µM, first compound 0.00316 µM) of the same compound?
**A.** Its viability, T/C is 89%.

**Q.** What about the viability, T/C (second compound 0.01 µM, first compound 0.01 µM) of the same compound?
**A.** Its viability, T/C is 84.5%.

**Q.** And the viability, T/C (second compound 0.01 µM, first compound 0.0316 µM)?
**A.** The viability, T/C was 72.8%.

**Q.** What about the viability, T/C (second compound 0.01 µM, first compound 0.1 µM) of the same compound?
**A.** The viability, T/C was 53%.

**Q.** And the viability, T/C (second compound 0.0316 µM, first compound 0.000316 µM)?
**A.** The viability, T/C was 85.9%.

**Q.** What about the viability, T/C (second compound 0.0316 µM, first compound 0.001 µM) of the same compound?
**A.** Its viability, T/C is 93.6%.

**Q.** What about the viability, T/C (second compound 0.0316 µM, first compound 0.00316 µM) of the same compound?
**A.** The viability, T/C was 71.2%.

**Q.** What about the viability, T/C (second compound 0.0316 µM, first compound 0.01 µM) of the same compound?
**A.** The viability, T/C was 64.4%.

**Q.** And the viability, T/C (second compound 0.0316 µM, first compound 0.0316 µM)?
**A.** The viability, T/C was 72.6%.

**Q.** What about the viability, T/C (second compound 0.0316 µM, first compound 0.1 µM) of the same compound?
**A.** Its viability, T/C is 50.3%.

**Q.** What about the viability, T/C (second compound 0.1 µM, first compound 0.000316 µM) of the same compound?
**A.** The viability, T/C was 67.9%.

**Q.** What about the viability, T/C (second compound 0.1 µM, first compound 0.001 µM) of the same compound?
**A.** The viability, T/C was 71.8%.

**Q.** And the viability, T/C (second compound 0.1 µM, first compound 0.00316 µM)?
**A.** Its viability, T/C is 68.7%.

**Q.** What about the viability, T/C (second compound 0.1 µM, first compound 0.01 µM) of the same compound?
**A.** The viability, T/C was 59.5%.

**Q.** What about the viability, T/C (second compound 0.1 µM, first compound 0.0316 µM) of the same compound?
**A.** The viability, T/C was 54.3%.

**Q.** And the viability, T/C (second compound 0.1 µM, first compound 0.1 µM)?
**A.** The viability, T/C was 42.1%.

**Q.** What about the viability, T/C (second compound 0.316 µM, first compound 0.000316 µM) of the same compound?
**A.** The viability, T/C was 52.8%.

**Q.** What about the viability, T/C (second compound 0.316 µM, first compound 0.001 µM) of the same compound?
**A.** Its viability, T/C is 58.1%.

**Q.** What about the viability, T/C (second compound 0.316 µM, first compound 0.00316 µM) of the same compound?
**A.** Its viability, T/C is 57.6%.

**Q.** And the viability, T/C (second compound 0.316 µM, first compound 0.01 µM)?
**A.** Its viability, T/C is 44%.

**Q.** What about the viability, T/C (second compound 0.316 µM, first compound 0.0316 µM) of the same compound?
**A.** Its viability, T/C is 41%.

**Q.** And the viability, T/C (second compound 0.316 µM, first compound 0.1 µM)?
**A.** Its viability, T/C is 30.8%.

**Q.** What about the viability, T/C (second compound 1 µM, first compound 0.000316 µM) of the same compound?
**A.** Its viability, T/C is 50.6%.

**Q.** What about the viability, T/C (second compound 1 µM, first compound 0.001 µM) of the same compound?
**A.** Its viability, T/C is 45.4%.

**Q.** What about the viability, T/C (second compound 1 µM, first compound 0.00316 µM) of the same compound?
**A.** The viability, T/C was 50.1%.

**Q.** What about the viability, T/C (second compound 1 µM, first compound 0.01 µM) of the same compound?
**A.** The viability, T/C was 36%.

**Q.** And the viability, T/C (second compound 1 µM, first compound 0.0316 µM)?
**A.** The viability, T/C was 31.9%.

**Q.** What about the viability, T/C (second compound 1 µM, first compound 0.1 µM) of the same compound?
**A.** Its viability, T/C is 27.2%.

**Q.** What does the source list for `CC(=O)c1c(C)c2cnc(Nc3ccc(N4CCNCC4)cn3)nc2n(C2CCCC2)c1=O`?
**A.** viability, T/C (compound 0.000316 µM): 95.4% [middle of 4 runs]; viability, T/C (compound 0.001 µM): 95.7% [middle of 4 runs]; viability, T/C (compound 0.00316 µM): 93.9% and 100% (2×) and 83.1%; viability, T/C (compound 0.01 µM): 97.5% [middle of 4 runs]; viability, T/C (compound 0.0316 µM): 87.3% [middle of 4 runs]; viability, T/C (compound 0.1 µM): 95.2% [middle of 4 runs]; IC50 (curve of compound): > 100 nM
